ChEMBL document CHEMBL3769391, “Identification of a new cyathane diterpene that induces mitochondrial and autophagy-dependent apoptosis and shows a potent in vivo anti-colorectal cancer activity” (Eur J Med Chem, 2016)

What was measured:
Type in all cases: functional
HCT-116 [1] = assay: Induction of apoptosis in human HCT116 cells assessed as late apoptotic cells at […] after 24 hrs by Annexin V-FITC/propidium iodide staining based flow cytometry (reference value: 3.73%)
HCT-116 [2] = assay: Induction of apoptosis in human HCT116 cells assessed as viable cells at […] after 24 hrs by Annexin V-FITC/propidium iodide staining based flow cytometry (reference value: 93.64%); settings: HCT-116, 24 h, read-out: Activity
HCT-116 [3] = assay: Induction of apoptosis in Bax deficient human HCT116 cells assessed as early apoptotic cells at […] after 24 hrs by Annexin V-FITC/propidium iodide staining based flow cytometry (reference value: 0.85%)
HCT-116 [4] = assay: Induction of apoptosis in human HCT116 cells assessed as necrotic cells at […] after 24 hrs by Annexin V-FITC/propidium iodide staining based flow cytometry (reference value: 0.44%)
HCT-116 [5] = assay: Induction of apoptosis in Bax deficient human HCT116 cells assessed as late apoptotic cells at […] after 24 hrs by Annexin V-FITC/propidium iodide staining based flow cytometry (reference value: 1.56%)
HCT-116 [6] = assay: Induction of apoptosis in human HCT116 cells assessed as early apoptotic cells at […] after 24 hrs by Annexin V-FITC/propidium iodide staining based flow cytometry (reference value: 2.2%)
HCT-116 [7] = assay: Induction of apoptosis in human HCT116 cells assessed as late apoptotic cells at 10 uM after 12 hrs by Annexin V-FITC/propidium iodide staining based flow cytometry (reference value: 3.37%)
HCT-116 [8] = assay: Induction of apoptosis in human HCT116 cells assessed as early apoptotic cells at 10 uM after 12 hrs by Annexin V-FITC/propidium iodide staining based flow cytometry (reference value: 1.13%)

| Compound | Activity (HCT-116 [1]) [%] | viability (HCT-116 [2]) [%] | Activity (HCT-116 [3]) [%] | Activity (HCT-116 [4]) [%] | Activity (HCT-116 [5]) [%] | Activity (HCT-116 [6]) [%] | Activity (HCT-116 [7]) [%] | Activity (HCT-116 [8]) [%] |
| --- | --- | --- | --- | --- | --- | --- | --- | --- |
| OC(CS)C(O)CS (racemic) [DL-DITHIOTHREITOL] | 8.67 | 88 | 2.99 | 0.21 | 3.5 | 3.12 |  |  |
| CO[C@H]1C(C=O)=CC[C@@H]2C3=C(C(C)C)CC[C@]3(C)CC[C@@]2(C)[C@H]1O |  |  |  |  |  |  | 3.68 | 3.83 |
| CC(=O)N[C@@H](CS)C(=O)O [ACETYLCYSTEINE] | 5.62 | 91.8 | 1.21 | 0.7 | 1.75 | 1.86 |  |  |
